{"source": "ChEMBL document CHEMBL5233273", "about": "“An overview of hydroxypyranone and hydroxypyridinone as privileged scaffolds for novel drug discovery” (Eur J Med Chem, 2021)", "data": [{"system": "Escherichia coli", "test": "Antibacterial activity against Escherichia coli", "assay_type": "functional", "details": "not given", "units": {"MIC": "µg/mL"}, "values": [{"molecule": "CCCC(=O)NC(CCCNC(=O)c1c(O)c(=O)ccn1CCO)(CCCNC(=O)c1c(O)c(=O)ccn1CCO)CCCNC(=O)c1c(O)c(=O)ccn1CCO", "MIC": 8}, {"molecule": "CCCC(=O)NC(CCCNC(=O)c1c(O)c(=O)ccn1C)(CCCNC(=O)c1c(O)c(=O)ccn1C)CCCNC(=O)c1c(O)c(=O)ccn1C", "MIC": 8}]}, {"system": "HeLa", "test": "Cytotoxicity against human HeLa cells", "assay_type": "functional, cell-based", "details": "not given", "units": {"IC50": "nM"}, "values": [{"molecule": "CC(C)(C)[Si](C)(C)OCc1cc(=O)c(O)c(C(C[N+](=O)[O-])c2cccc(Cl)c2)o1", "note": "(stereo not drawn)", "IC50": 10000}]}, {"system": "Mycolicibacterium smegmatis", "test": "Antimycobacterial activity against Mycobacterium smegmatis", "assay_type": "functional", "details": "not given", "units": {"MIC": "µg/mL"}, "values": [{"molecule": "Cc1cc(=O)c(O)c(CN2CCCC(C)C2)o1", "note": "(stereo not drawn)", "MIC": 8}, {"molecule": "Cc1cc(=O)c(O)c(CN2CCC(CO)CC2)o1", "MIC": 8}, {"molecule": "Cc1cc(=O)c(O)c(CN2CCC(C)CC2)o1", "MIC": 8}, {"molecule": "Cc1cc(=O)c(O)c(CN2CCC(c3ccc(O)cc3)CC2)o1", "MIC": 8}, {"molecule": "CCOC(=O)C1CCN(Cc2oc(C)cc(=O)c2O)CC1", "MIC": 8}, {"molecule": "Cc1cc(=O)c(O)c(CN2CCCC(O)C2)o1", "note": "(stereo not drawn)", "MIC": 8}, {"molecule": "Cc1cc(=O)c(O)c(CN2CCC(c3ccccn3)CC2)o1", "MIC": 8}, {"molecule": "Cc1cc(=O)c(O)c(CN2CCCCC2)o1", "MIC": 8}, {"molecule": "Cc1cc(=O)c(O)c(CN2CCCCC2C)o1", "note": "(stereo not drawn)", "MIC": 8}, {"molecule": "Cc1cc(=O)c(O)c(CN2CCC(N3CCOCC3)CC2)o1", "MIC": 8}, {"molecule": "Cc1cc(=O)c(O)c(CN2C(C)CCCC2C)o1", "note": "(stereo not drawn)", "MIC": 8}, {"molecule": "Cc1cc(=O)c(O)c(CN2CCC(c3ccccc3)CC2)o1", "MIC": 8}, {"molecule": "CCC1CCC(C)N(Cc2oc(C)cc(=O)c2O)C1", "note": "(stereo not drawn)", "MIC": 8}, {"molecule": "Cc1cc(=O)c(O)c(CN2CC(C)CC(C)C2)o1", "note": "(stereo not drawn)", "MIC": 8}, {"molecule": "Cc1cc(=O)c(O)c(CN2CCC(O)CC2)o1", "MIC": 8}, {"molecule": "Cc1cc(=O)c(O)c(CN2CCC(Cc3ccccc3)CC2)o1", "MIC": 8}, {"molecule": "CCCC1CCN(Cc2oc(C)cc(=O)c2O)CC1", "MIC": 8}, {"molecule": "Cc1cc(=O)c(O)c(CN2CCCC(CO)C2)o1", "note": "(stereo not drawn)", "MIC": 8}, {"molecule": "CCCC1CCCCN1Cc1oc(C)cc(=O)c1O", "note": "(stereo not drawn)", "MIC": 8}]}, {"system": "Mycobacterium avium", "test": "Antitubercular activity against Mycobacterium avium ATCC 15769", "assay_type": "functional", "details": "not given", "units": {"MIC": "µg/mL"}, "values": [{"molecule": "O=C(C1CCCCC1)N1CCN(Cc2oc(CCl)cc(=O)c2O)CC1", "MIC": 4}]}, {"biological_target": "T1, Tyrosinase (Agaricus bisporus, UniProt O42713)", "T1 sequence (O42713 whole entry)": "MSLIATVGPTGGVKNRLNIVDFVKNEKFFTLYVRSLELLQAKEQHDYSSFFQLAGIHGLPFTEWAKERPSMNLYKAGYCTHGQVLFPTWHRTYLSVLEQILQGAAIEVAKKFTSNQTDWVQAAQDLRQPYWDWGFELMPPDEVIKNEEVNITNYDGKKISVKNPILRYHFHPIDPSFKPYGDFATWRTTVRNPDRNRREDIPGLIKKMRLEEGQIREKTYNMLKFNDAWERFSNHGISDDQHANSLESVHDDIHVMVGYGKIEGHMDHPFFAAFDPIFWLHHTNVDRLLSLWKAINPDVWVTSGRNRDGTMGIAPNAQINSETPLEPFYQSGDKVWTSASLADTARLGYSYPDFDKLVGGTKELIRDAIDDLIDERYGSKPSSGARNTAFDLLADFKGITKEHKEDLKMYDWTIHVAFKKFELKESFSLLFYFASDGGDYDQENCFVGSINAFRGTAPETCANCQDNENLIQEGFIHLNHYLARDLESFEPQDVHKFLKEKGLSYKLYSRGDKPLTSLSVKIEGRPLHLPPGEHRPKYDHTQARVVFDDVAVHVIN", "test": "Inhibition of mushroom tyrosinase monophenolase activity", "details": "not given", "units": {"IC50": "nM"}, "values": [{"molecule": "CCCCCCCCn1cc(O)c(=O)cc1/C=N/OCC", "IC50": 1600}, {"molecule": "CCCCCCCCn1cc(O)c(=O)cc1COC(=O)[C@@H](N)Cc1ccccc1", "IC50": 12600}]}, {"system": "A549", "test": "Cytotoxicity against human A549 cells", "assay_type": "functional, cell-based", "details": "not given", "units": {"IC50": "nM"}, "values": [{"molecule": "CC(C)(C)[Si](C)(C)OCc1cc(=O)c(O)c(C(C[N+](=O)[O-])c2ccc(Br)cc2)o1", "note": "(stereo not drawn)", "IC50": 8000}, {"molecule": "CC(C)(C)[Si](C)(C)OCc1cc(=O)c(O)c(C(C[N+](=O)[O-])c2cccc(Cl)c2)o1", "note": "(stereo not drawn)", "IC50": 9000}]}, {"system": "Staphylococcus aureus", "test": "Antibacterial activity against Staphylococcus aureus", "assay_type": "functional", "details": "not given", "units": {"MIC": "µg/mL"}, "values": [{"molecule": "CCCC(=O)NC(CCCNC(=O)c1c(O)c(=O)ccn1CCO)(CCCNC(=O)c1c(O)c(=O)ccn1CCO)CCCNC(=O)c1c(O)c(=O)ccn1CCO", "MIC": 8}, {"molecule": "Cn1cc(O)c(=O)cc1C(=O)Nc1cccnc1", "MIC": 32}, {"molecule": "CCCC(=O)NC(CCCNC(=O)c1c(O)c(=O)ccn1C)(CCCNC(=O)c1c(O)c(=O)ccn1C)CCCNC(=O)c1c(O)c(=O)ccn1C", "MIC": 8}, {"molecule": "Cn1cc(O)c(=O)cc1C(=O)Nc1ccccc1", "MIC": 16}]}, {"system": "DU-145", "test": "Cytotoxicity against human DU-145 cells", "assay_type": "functional, cell-based", "details": "not given", "units": {"IC50": "nM"}, "values": [{"molecule": "CC(C)(C)[Si](C)(C)OCc1cc(=O)c(O)c(C(C[N+](=O)[O-])c2ccc(Br)cc2)o1", "note": "(stereo not drawn)", "IC50": 13000}, {"molecule": "CC(C)(C)[Si](C)(C)OCc1cc(=O)c(O)c(C(C[N+](=O)[O-])c2cccc(Cl)c2)o1", "note": "(stereo not drawn)", "IC50": 14000}]}, {"system": "not listed separately", "test": "Neuroprotective activity in CGC cells assessed as inhibition of lipid peroxidation", "assay_type": "functional, cell-based", "details": "cerebellar granule neurone", "units": {"IC50": "nM"}, "values": [{"molecule": "Cc1c(O)c(=O)ccn1CCSc1cc(C(C)(C)C)c(O)c(C(C)(C)C)c1", "IC50": 400}, {"molecule": "Cc1c(O)c(=O)ccn1CCc1cc(C(C)(C)C)c(O)c(C(C)(C)C)c1", "IC50": 300}]}, {"system": "HepG2", "test": "Cytotoxicity against human HepG2 cells", "assay_type": "functional, cell-based", "details": "not given", "units": {"IC50": "nM"}, "values": [{"molecule": "O=c1cc(CN2CCCCC2)oc(CN2CCN(Cc3ccc(Br)c(F)c3)CC2)c1O", "IC50": 37200}, {"molecule": "O=c1cc(CN2CCCC2)oc(CN2CCN(Cc3ccc(Br)c(F)c3)CC2)c1O", "IC50": 32700}]}, {"system": "Pseudomonas aeruginosa", "test": "Antibacterial activity against Pseudomonas aeruginosa", "assay_type": "functional", "details": "not given", "units": {"MIC": "µg/mL"}, "values": [{"molecule": "CCCC(=O)NC(CCCNC(=O)c1c(O)c(=O)ccn1CCO)(CCCNC(=O)c1c(O)c(=O)ccn1CCO)CCCNC(=O)c1c(O)c(=O)ccn1CCO", "MIC": 16}, {"molecule": "CCCC(=O)NC(CCCNC(=O)c1c(O)c(=O)ccn1C)(CCCNC(=O)c1c(O)c(=O)ccn1C)CCCNC(=O)c1c(O)c(=O)ccn1C", "MIC": 16}]}, {"system": "Bacillus subtilis", "test": "Antibacterial activity against Bacillus subtilis", "assay_type": "functional", "details": "not given", "units": {"MIC": "µg/mL"}, "values": [{"molecule": "CCCC(=O)NC(CCCNC(=O)c1c(O)c(=O)ccn1CCO)(CCCNC(=O)c1c(O)c(=O)ccn1CCO)CCCNC(=O)c1c(O)c(=O)ccn1CCO", "MIC": 8}, {"molecule": "CCCC(=O)NC(CCCNC(=O)c1c(O)c(=O)ccn1C)(CCCNC(=O)c1c(O)c(=O)ccn1C)CCCNC(=O)c1c(O)c(=O)ccn1C", "MIC": 8}]}, {"biological_target": "T1, Tyrosinase", "test": "Inhibition of mushroom tyrosinase diphenolase activity", "details": "not given", "units": {"IC50": "nM"}, "values": [{"molecule": "CCCCCCCCn1cc(O)c(=O)cc1/C=N/OCC", "IC50": 7990}, {"molecule": "CCCCCCCCn1cc(O)c(=O)cc1COC(=O)[C@@H](N)Cc1ccccc1", "IC50": 4000}]}, {"biological_target": "DNA gyrase (Escherichia coli, UniProt P0AES4+P0AES6)", "test": "Inhibition of Escherichia coli DNA gyrase", "assay_type": "protein-complex assay", "details": "not given", "units": {"IC50": "nM"}, "values": [{"molecule": "Cc1[nH]c(C(=O)N[C@H]2CCc3nc(NCc4cc(=O)c(O)co4)sc3C2)c(Cl)c1Cl", "IC50": 2100}, {"molecule": "O=C(N[C@H]1CCc2nc(NCc3cc(=O)c(O)co3)sc2C1)c1cc(Br)c(Br)[nH]1", "IC50": 180}, {"molecule": "Cc1[nH]c(C(=O)N[C@H]2CCc3nc(NC(=O)[C@@H](NC(=O)c4cc(=O)c(O)c[nH]4)C(C)C)sc3C2)c(Cl)c1Cl", "IC50": 640}, {"molecule": "Cc1[nH]c(C(=O)N[C@H]2CCc3nc(NC(=O)[C@H](C)NC(=O)c4cc(=O)c(O)c[nH]4)sc3C2)c(Cl)c1Cl", "IC50": 260}, {"molecule": "Cc1[nH]c(C(=O)N[C@H]2CCc3nc(NC(=O)CCNC(=O)c4cc(=O)c(O)c[nH]4)sc3C2)c(Cl)c1Cl", "IC50": 350}]}, {"biological_target": "not listed separately", "test": "Inhibition of HIV-1 integrase", "set-up": "species or system Human immunodeficiency virus 1", "details": "not given", "units": {"EC50": "nM", "IC50": "nM"}, "values": [{"molecule": "Cc1cc(=O)c(O)c(C(=O)NCc2ccc(F)cc2)o1", "EC50": 700, "IC50": 370}, {"molecule": "Cc1cc(=O)c(O)c(C(=O)NCc2ccc(Cl)cc2)o1", "EC50": 1950, "IC50": 1720}]}, {"system": "Mycobacterium tuberculosis", "test": "Antitubercular activity against Mycobacterium tuberculosis H37Rv ATCC 27294", "assay_type": "functional", "details": "not given", "units": {"MIC": "µg/mL"}, "values": [{"molecule": "O=C(C1CCCCC1)N1CCN(Cc2oc(CCl)cc(=O)c2O)CC1", "MIC": 4}]}]}
